The source made the active and inactive calls. The rule behind the calls is not given here.
Legend:
[1] = target: T1, Nuclear factor erythroid 2-related factor 2 (Homo sapiens) (UniProt Q16236); assay: Activation of Nrf2 in human HaCaT-ARE-Luc cells at 50 uM after 6 hrs by luciferase reporter gene assay relative to control; format: cell-based
T1 sequence (whole entry): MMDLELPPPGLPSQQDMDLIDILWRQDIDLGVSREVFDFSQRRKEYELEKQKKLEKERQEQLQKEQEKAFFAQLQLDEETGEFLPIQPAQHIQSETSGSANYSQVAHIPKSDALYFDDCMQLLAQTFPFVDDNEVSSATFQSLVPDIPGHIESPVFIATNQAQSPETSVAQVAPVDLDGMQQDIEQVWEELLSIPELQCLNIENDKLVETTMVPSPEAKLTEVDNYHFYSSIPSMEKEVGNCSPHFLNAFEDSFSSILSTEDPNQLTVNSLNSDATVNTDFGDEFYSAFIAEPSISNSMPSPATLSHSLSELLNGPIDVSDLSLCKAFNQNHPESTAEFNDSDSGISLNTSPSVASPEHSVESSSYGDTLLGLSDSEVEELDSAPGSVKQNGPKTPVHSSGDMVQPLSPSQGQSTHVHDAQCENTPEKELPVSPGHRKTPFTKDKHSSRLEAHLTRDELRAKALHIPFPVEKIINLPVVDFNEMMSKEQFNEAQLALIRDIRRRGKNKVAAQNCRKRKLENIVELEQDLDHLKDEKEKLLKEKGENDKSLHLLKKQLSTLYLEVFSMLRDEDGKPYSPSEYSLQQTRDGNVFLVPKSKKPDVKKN

NIH3T3 = assay: Cytotoxicity against mouse NIH/3T3 cells infected with lentivirus encoding nuclear restricted red fluorescent protein assessed as reduction in cell viability up to 100 uM after 6 hrs by microscopic method; format: cell-based; conditions: nih3t3, 6 h
[2] = Inhibition of TNFalpha-stimulated NFkappaB (unknown origin) expressed in mouse NIH-3T3-KBFLuc cells at 50 uM after 6 hrs by luciferase reporter gene assay relative to control; format: cell-based; conditions: Homo sapiens
[3] = target: Signal transducer and activator of transcription 3 (Homo sapiens) (UniProt P40763); assay: Inhibition of IFNgamma-stimulated STAT3 (unknown origin) activation expressed in human HeLa cells at 50 uM after 6 hrs by luciferase reporter gene assay relative to control; format: cell-based
[4] = Inhibition of TNFalpha-stimulated NFkappaB (unknown origin) expressed in mouse NIH-3T3-KBFLuc cells preincubated for 15 mins followed by TNFalpha stimulation for 6 hrs by luciferase reporter gene assay; format: cell-based; conditions: Homo sapiens
HaCaT [5] = assay: Antioxidant activity in human HaCaT cells assessed as inhibition of TBHP-induced ROS accumulation by measuring ROS level preincubated with cells followed by TBHP addition by CM-H2DCFDA dye-based fluorescence assay relative to control; format: functional; design: scale not given: the % may be the effect or the level left
[6] = Cytotoxicity against human gingival fibroblasts assessed as decrease in cell viability at 50 uM after 48 hrs by sulforhodamine B dye-based assay relative to control; conditions: gingival fibroblast
K562 [7] = assay: Antiproliferative activity against human K562 cells at 50 uM after 48 hrs by sulforhodamine B assay relative to control; format: functional; conditions: K562, 48 h
U-251 [8] = assay: Antiproliferative activity against human U251 cells at 50 uM after 48 hrs by sulforhodamine B assay relative to control; format: functional; conditions: U-251, 48 h
HCT-15 [9] = assay: Antiproliferative activity against human HCT15 cells at 50 uM after 48 hrs by sulforhodamine B assay relative to control; format: functional; conditions: HCT-15, 48 h
PC-3 [10] = assay: Antiproliferative activity against human PC3 cells at 50 uM after 48 hrs by sulforhodamine B assay relative to control; format: functional; conditions: PC-3, 48 h
MCF7 [11] = assay: Antiproliferative activity against human MCF7 cells at 50 uM after 48 hrs by sulforhodamine B assay relative to control; format: functional; conditions: MCF7, 48 h
HCT-15 [12] = assay: Antiproliferative activity against human HCT15 cells after 48 hrs by sulforhodamine B assay; format: functional, cell-based; conditions: HCT-15, 48 h
U-251 [13] = assay: Antiproliferative activity against human U251 cells after 48 hrs by sulforhodamine B assay; format: functional, cell-based; conditions: U-251, 48 h
K562 [14] = assay: Antiproliferative activity against human K562 cells after 48 hrs by sulforhodamine B assay; format: functional, cell-based; conditions: K562, 48 h
MCF7 [15] = assay: Antiproliferative activity against human MCF7 cells after 48 hrs by sulforhodamine B assay; format: functional, cell-based; conditions: MCF7, 48 h
SK-LU-1 [16] = assay: Antiproliferative activity against human SK-LU-1 cells after 48 hrs by sulforhodamine B assay; format: functional, cell-based; conditions: SK-LU-1, 48 h
SK-LU-1 [17] = assay: Antiproliferative activity against human SK-LU-1 cells at 50 uM after 48 hrs by sulforhodamine B assay relative to control; format: functional; conditions: SK-LU-1, 48 h
PC-3 [18] = assay: Antiproliferative activity against human PC3 cells after 48 hrs by sulforhodamine B assay; format: functional, cell-based; conditions: PC-3, 48 h
[19] = Cytotoxicity against human gingival fibroblasts assessed as decrease in cell viability at 50 uM after 48 hrs by sulforhodamine B dye-based assay; conditions: gingival fibroblast
HaCaT [20] = assay: Antioxidant activity in human HaCaT cells assessed as inhibition of TBHP-induced ROS accumulation by measuring ROS level at 10 uM preincubated with cells followed by TBHP addition by CM-H2DCFDA dye-based fluorescence assay relative to control; format: functional; design: scale not given: the % may be the effect or the level left
HaCaT [21] = assay: Antioxidant activity in human HaCaT cells assessed as inhibition of TBHP-induced ROS accumulation by measuring ROS level at 50 uM preincubated with cells followed by TBHP addition by CM-H2DCFDA dye-based fluorescence assay relative to control; format: functional; design: scale not given: the % may be the effect or the level left
HaCaT [22] = assay: Antioxidant activity in human HaCaT cells assessed as inhibition of TBHP-induced ROS accumulation by measuring ROS level at 100 uM preincubated with cells followed by TBHP addition by CM-H2DCFDA dye-based fluorescence assay relative to control; format: functional; design: scale not given: the % may be the effect or the level left
HaCaT [23] = assay: Antioxidant activity in human HaCaT cells assessed as inhibition of TBHP-induced ROS accumulation by measuring ROS level at 75 uM preincubated with cells followed by TBHP addition by CM-H2DCFDA dye-based fluorescence assay relative to control; format: functional; design: scale not given: the % may be the effect or the level left
Mus musculus = species on record: Mus musculus; assay: Inhibition of IKK in mouse NIH-3T3-KBF-Luc cells assesed as downregulation of TNFalpha-stimulated phospho-IkappaBalpha protein expression levels at 10 to 100 uM preincubated for 15 mins followed by TNFalpha stimulation for 20 mins by Western blot analysis
HaCaT [24] = assay: Antioxidant activity in human HaCaT cells assessed as inhibition of TBHP-induced ROS accumulation by measuring ROS level at 25 uM preincubated with cells followed by TBHP addition by CM-H2DCFDA dye-based fluorescence assay relative to control; format: functional; design: scale not given: the % may be the effect or the level left
HaCaT [25] = assay: Induction of ROS accumulation in human HaCaT cells at 10 to 100 uM by CM-H2DCFDA dye-based fluorescence assay; format: functional, cell-based

Chain of Signal transducer and activator of transcription 3 (Homo sapiens) (P40763 whole entry): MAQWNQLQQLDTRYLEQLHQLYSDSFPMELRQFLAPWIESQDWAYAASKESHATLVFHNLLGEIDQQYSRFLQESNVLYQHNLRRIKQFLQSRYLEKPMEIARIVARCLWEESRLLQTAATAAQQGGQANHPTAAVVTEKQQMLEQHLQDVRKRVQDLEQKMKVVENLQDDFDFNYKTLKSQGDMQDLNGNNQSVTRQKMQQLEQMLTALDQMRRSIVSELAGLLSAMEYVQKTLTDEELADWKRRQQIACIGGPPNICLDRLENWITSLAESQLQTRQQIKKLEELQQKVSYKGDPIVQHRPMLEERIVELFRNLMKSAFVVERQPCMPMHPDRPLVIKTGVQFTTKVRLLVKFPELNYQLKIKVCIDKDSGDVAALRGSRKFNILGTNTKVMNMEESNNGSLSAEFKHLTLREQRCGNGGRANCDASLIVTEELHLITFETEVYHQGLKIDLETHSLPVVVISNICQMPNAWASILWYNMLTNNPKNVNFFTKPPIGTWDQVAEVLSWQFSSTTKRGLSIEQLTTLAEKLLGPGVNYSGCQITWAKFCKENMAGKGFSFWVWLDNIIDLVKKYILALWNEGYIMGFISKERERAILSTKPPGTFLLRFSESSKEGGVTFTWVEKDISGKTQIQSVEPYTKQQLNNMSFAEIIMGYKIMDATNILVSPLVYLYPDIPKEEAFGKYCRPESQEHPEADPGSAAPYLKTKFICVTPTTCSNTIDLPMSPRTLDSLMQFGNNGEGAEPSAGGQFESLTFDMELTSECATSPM

Row | SMILES | fold change (FC) [1] | Activity (NIH3T3) | inhibition [2] [%] | inhibition [3] [%] | IC50 [4] [µM] | Activity [6] [%] | inhibition at 50 µM (K562 [7]) [%] | inhibition at 50 µM (U-251 [8]) [%] | inhibition at 50 µM (HCT-15 [9]) [%] | inhibition at 50 µM (PC-3 [10]) [%] | inhibition at 50 µM (MCF7 [11]) [%] | IC50 (HCT-15 [12]) [µM] | IC50 (U-251 [13]) [µM] | IC50 (K562 [14]) [µM] | IC50 (MCF7 [15]) [µM] | IC50 (SK-LU-1 [16]) [µM] | inhibition at 50 µM (SK-LU-1 [17]) [%] | IC50 (PC-3 [18]) [µM] | other results
1 | CC1=CC[C@H](C(C)C)c2cc(C)c(O)cc21 | 3.1 | Non-Toxic | 50.8 | 2.1 | 72 |  |  |  |  |  |  |  |  |  |  |  |  |  | 
2 | CC(=O)N[C@@H](CS)C(=O)O [ACETYLCYSTEINE] |  |  |  |  |  |  |  |  |  |  |  |  |  |  |  |  |  |  | Activity (HaCaT [5]): 1%
3 | Cc1cc2c(C(C)C)ccc(C)c2cc1OC(=O)c1ccc([N+](=O)[O-])cc1 | 1.8 |  | 18.5 | 1.6 |  | 43.03 | 100 | 100 | 97.6 | 100 | 100 | 7.88 | 7.75 | 2.28 | 7.9 | 9.37 | 100 | 17.6 | 
4 | Cc1cc2c(C(C)C)ccc(C)c2cc1OC(=O)Nc1ccccc1 | 1.4 |  | 13.3 | 3 |  |  | 100 | 100 | 84.7 | 44.7 | 100 | 3.88 | 15.8 | 14 |  | 10.1 | 90.4 | 8.62 | Activity [19]: Non-Toxic
5 | Cc1ccc(C(=O)Oc2cc3c(C)ccc(C(C)C)c3cc2C)cc1 | 1.8 |  | 30.3 | 2.9 |  | 13.37 | 100 | 100 | 86.5 | 72.3 | 90.2 | 12 | 22.8 | 8.37 | 8.2 | 10.2 | 100 | 23.7 | 
6 | CC1=CC[C@H](C(C)C)c2cc(C)c(OC(=O)Nc3ccccc3)cc21 | 1.6 |  | 4.2 | 3.3 |  | 38.24 | 92.6 | 100 | 92 | 93.2 | 75.1 | 0.03 | 0.46 | 0.3 | 4.05 | 0.12 | 100 | 7.93 | 
7 | Cc1cc2c(C(C)C)ccc(C)c2cc1O | 1.7 | Non-Toxic | 61.5 | 3.5 | 16.5 |  |  |  |  |  |  |  |  |  |  |  |  |  | 
8 | CC1=CC[C@H](C(C)C)c2cc(C)c(OC(=O)c3ccc(C)cc3)cc21 | 9.4 | Non-Toxic | 76 | 3.1 | 47.1 |  | 100 | 67.7 | 78.9 | 49.6 | 65 | 40.3 |  | 30.9 |  | 33.9 | 85.4 |  | Activity (HaCaT [20]): 74.7%; Activity (HaCaT [21]): 55.8%; Activity (HaCaT [22]): 25.9%; Activity (HaCaT [23]): 52%; inhibition (Mus musculus): Active; Activity (HaCaT [24]): 64.5%; Activity (HaCaT [25]): inactive
